From publication PMC3014287 (Molecular cell, 2010)

Columns and labels:
PKCβII [1] = target: T1, PKCβII (Homo sapiens, UniProt P05771); test: […] kinase assay with substrate peptide, Dixon plot; type: biochemical
PKCβII [2] = target: T1, PKCβII; test: as above; type: biochemical; remark: listed apart in the source
[3] = target: AKAP79(1-81)-CKAR (human) (UniProt P24588)

## CN(C)CCCn1cc(C2=C(c3c[nH]c4ccccc34)C(=O)NC2=O)c2ccccc21 [BIS I, bisindolylmaleimide I]
PKCβII [1]
  Ki: 14.5 ± 4.6 nM

## O=C1NC(=O)C(c2c[nH]c3ccccc23)=C1c1c[nH]c2ccccc12 [BIS IV, bisindolylmaleimide IV]
PKCβII [2]
  32P kinase assay with substrate peptide, Dixon plot: BIS IV, a bisindolylmaleimide derivative that lacks the dimethylamino group is an uncompetitive inhibitor with respect to the substrate peptide

## PKCβII (Calbiochem) (from UniProt P05771-2 1-673) (enzyme)
[3]
  T½ of the FRET response of the reporter to Oxo-M in CHO cells (cellular PKC): 8.3 s
